# Assay results taken from patent publication US20190185865A1, “USE OF PROKARYOTIC TRANSCRIPTIONAL ACTIVATORS AS METABOLITE BIOSENSORS IN EUKARYOTIC CELLS” (Danmarks Tekniske Universitet, priority 2016, published 2019).
# Where “and” joins values, the source holds several entries; their conditions need not be identical. Equal entries are not always repeated.
# Key:
# S. cerevisiae cells = assay: Transport assay: uptake of CCM by yeast cells (LC-MS); type: cell-based, Saccharomyces cerevisiae; settings: pH 4.5, 24 h
# Description: Overnight grown CEN.PK113-5A cells were diluted (OD600=0.1) into SC-HIS-LEU medium with or without 1.4 mM (200 mg/L) CCM. Media samples were taken at both 0 h and 24 h, while samples for measuring cellular lysates (10^8 cells) were harvested at 24 h. For quantification of CCM by LC-MS, cultures were harvested by centrifugation. For extracellular CCM quantification the supernatant was centrifuged twice and filtered (0.2 μm) before analysis. For intracellular CCM quantification harvested pellets were washed twice in ice-cold isotonic saline solution (0.9% NaCl) and centrifuged at 5,000×g before cells were extracted in an aqueous 0.1% formic acid solution and sonicated for 15 min. Following this, samples were centrifuged at 13,000×g and supernatants filtered (0.2 μm) prior to analysis. LC-MS data was collected on EVOQ EliteTriple Quadrupole Mass Spectrometer system coupled with an Advance UHPLC (Bruker). Samples were held at 4° C. during the analysis. A 1 μL sample was injected onto a ACQUITY HSS T3 C18 UHPLC column (Waters), with a 1.8 μm particle size and 2.1×100 mm dimensioning. The column was held at a temperature of 30° C. […] Two transitions were chosen in negative Multiple Reaction Monitoring (MRM) mode for quantification of CCM: m/z 141.70-96.80 (quantification transition) and m/z 141.70-53.1 (confirmation transition). […]
# BenM = assay: CCM-induced GFP expression in yeast strains combining BenM expression cassettes and CYC1p reporter promoter variants (flow cytometry); type: cell-based, Saccharomyces cerevisiae; settings: for FC (+/−CCM): 1.4 mM CCM, 24 h
# Source text: Strains, chemicals and media. Saccharomyces cerevisiae CEN.PK102-5B (MATa ura3-52 his3Δ1 leu2-3/112 MAL2-8^c SUC2), CEN.PK113-5A (MATa, trp1 his3Δ1 leu2-3/112 MAL2-8^c SUC2) and CEN.PK113-7D (wild type, MATa MAL2-8^c SUC2) strains were obtained from Peter Kotter (Johann Wolfgang Goethe-University Frankfurt, Germany). In principal any other yeast strains may be used, such as one obtained from public repository EuroScarf. EasyClone plasmids used in this work are described in Jensen, N. B. et al. EasyClone: method for iterative chromosomal integration of multiple genes in Saccharomyces cerevisiae. FEMS Yeast Res. 14, 238-48 (2014). Escherichia coli strain DH5a was used as a host for cloning and plasmid propagation. The chemicals and Pfu TURBO DNA polymerase were commercially obtained (Sigma-Aldrich and Agilent Technologies Inc., respectively). All acids used were >97% in purity. S. cerevisiae cells were grown at 30° C. in synthetic complete medium as well as drop-out media and agar plates were prepared using pre-mixed drop-out powders (Sigma-Aldrich). Mineral medium was freshly prepared as described previously. For all media containing diacids, 1.4 mM of the individual diacids were dissolved in mineral medium and pH adjusted to 4.5 before sterile filtration. For CCM several dilutions were made to examine the performance of the CCM biosensor. For naringenin, mineral medium was supplemented with 0, 0.05, 0.10 or 0.20 mM naringenin, dissolved in ethanol, the final ethanol concentration for each medium was 2% (v/v), and the final pH of the medium was adjusted to 6.0. E. coli cells were grown at 37° C. in Luria-Bertani (LB) medium supplemented with 100 μg/mL ampicillin.
# Events were analyzed using FlowJo software (TreeStar Inc.).
# [1] = Solubility in growth medium; type: physicochemical; settings: aqueous buffer, read-out: highest soluble CCM concentration
# yeast cells = assay: Growth of yeast cells in liquid medium containing CCM; type: cell-based, Saccharomyces cerevisiae; settings: pH 4.5
# Description: FIG. 9 (a) Uptake of cis,cis-muconic acid (CCM) at pH 4.5 by S. cerevisiae cells following 24 h of growth. (b) Representative growth curves of yeast cells in liquid medium containing different concentrations of CCM. OD values were determined at 1-h intervals over 25-h period. For both (a) and (b) data display means±s.d. from three (n=3) biological replicate cultivations.
# [2] = strain MeLS0131, 491bp_CYC1p:GFP
# [3] = strain MeLS0132, 272bp_CYC1p:GFP
# [4] = strain MeLS0133, 249bp_CYC1p:GFP
# [5] = strain MeLS0134, 209bp_CYC1p:GFP
# [6] = strain MeLS0135, 491bp_CYC1p_BenO_T1:GFP
# [7] = strain MeLS0136, 272bp_CYC1p_BenO_T1:GFP
# [8] = strain MeLS0137, 249bp_CYC1p_BenO_T1:GFP
# [9] = strain MeLS0138, 209bp_CYC1p_BenO_T1:GFP
# [10] = strain MeLS0177, 491bp_CYC1p_BenO_T2:GFP
# [11] = strain MeLS0178, 491bp_CYC1p_BenO_T1/T2:GFP
# [12] = strain MeLS0180, 209bp_CYC1p_BenO_T2:GFP
# [13] = strain MeLS0181, 209bp_CYC1p_BenO_T1/T2:GFP
# [14] = strain MeLS0259, 272bp_CYC1p_BenO_T2:GFP
# [15] = strain MeLS0260, 249bp_CYC1p_BenO_T2:GFP
# [16] = strain MeLS0261, 272bp_CYC1p_BenO_T1/T2:GFP
# [17] = strain MeLS0262, 249bp_CYC1p_BenO_T1/T2:GFP
compound,measurement,setting,value
"O=C(O)/C=C\C=C/C(=O)O [CCM, cis, cis-muconic acid]",uptake of CCM by yeast,S. cerevisiae cells,directly taken up
same,"Mean fluorescense intensities of GFP (24 h), CCM (1.4 mM)",BenM; [2],2899
same,FC (+/−CCM),BenM; [2],1.042
same,"Mean fluorescense intensities of GFP (24 h), CCM (1.4 mM)",BenM; [3],211
same,FC (+/−CCM),BenM; [3],1.213
same,"Mean fluorescense intensities of GFP (24 h), CCM (1.4 mM)",BenM; [4],219
same,FC (+/−CCM),BenM; [4],1.043
same,"Mean fluorescense intensities of GFP (24 h), CCM (1.4 mM)",BenM; [5],171
same,FC (+/−CCM),BenM; [5],1.13
same,"Mean fluorescense intensities of GFP (24 h), CCM (1.4 mM)",BenM; [6],801
same,FC (+/−CCM),BenM; [6],1.062
same,"Mean fluorescense intensities of GFP (24 h), CCM (1.4 mM)",BenM; [7],160
same,FC (+/−CCM),BenM; [7],1.032
same,"Mean fluorescense intensities of GFP (24 h), CCM (1.4 mM)",BenM; [8],180
same,FC (+/−CCM),BenM; [8],1.151
same,"Mean fluorescense intensities of GFP (24 h), CCM (1.4 mM)",BenM; [9],167
same,FC (+/−CCM),BenM; [9],1.133
same,"Mean fluorescense intensities of GFP (24 h), CCM (1.4 mM)",BenM; [10],698
same,FC (+/−CCM),BenM; [10],1.088
same,"Mean fluorescense intensities of GFP (24 h), CCM (1.4 mM)",BenM; [11],241
same,FC (+/−CCM),BenM; [11],0.9731
same,"Mean fluorescense intensities of GFP (24 h), CCM (1.4 mM)",BenM; [12],165
same,FC (+/−CCM),BenM; [12],1.088
same,"Mean fluorescense intensities of GFP (24 h), CCM (1.4 mM)",BenM; [13],165
same,FC (+/−CCM),BenM; [13],1.102
same,"Mean fluorescense intensities of GFP (24 h), CCM (1.4 mM)",BenM; [14],201
same,FC (+/−CCM),BenM; [14],1.002
same,"Mean fluorescense intensities of GFP (24 h), CCM (1.4 mM)",BenM; [15],313
same,FC (+/−CCM),BenM; [15],0.909
same,"Mean fluorescense intensities of GFP (24 h), CCM (1.4 mM)",BenM; [16],257
same,FC (+/−CCM),BenM; [16],0.7988
same,"Mean fluorescense intensities of GFP (24 h), CCM (1.4 mM)",BenM; [17],203
same,FC (+/−CCM),BenM; [17],1
same,solubility,[1],1400 µM and 200 µg/mL
same,growth of yeast in presence of CCM,yeast cells,without any growth defects
